The values below come from patent US7101876B2, “Substituted benzoxazines as integrin antagonists” (Pharmacia Corporation, priority 2001, dated 2006).

SMILES strings stand for the structures.

The target of one assay is T1, human αvβ3 integrin (Homo sapiens, UniProt P05106+P06756).
T1 construct: Human vitronectin receptor (αvβ3) was purified from human placenta; from tissue; host or cells: human placenta
In words: αvβ3-vitronectin binding assay (solid phase). How it is done: (§1) A solid phase assay for the study of αvβ3-vitronectin binding was set up on the basis of already published methods (WONG et al., Molecular Pharmacology 50: 529–537, 1996; Brooks et al., Cell 85: 683–693, 1996). The human αvβ3 integrin was diluted into coating buffer (CB) containing 150 mM NaCl, 1 mM CaCl2, 1 mM MgCl2, 1 mM MnCl2, 20 mM TRIS, pH 7.4 at a concentration of 1.5 μg/ml. Into 96-well plates, 50 μl of the diluted integrin were added and allowed to bind to the plate walls overnight at 4° C. Next day, the assay plates were emptied and 100 μl of blocking buffer (CB buffer with 3% BSA) were added to each well for 45 min at 37° C. […] Then, the plates were washed as described and 50 μl of ready to use Turbo-TMB substrate for peroxydase were added to each well. After 30 minutes incubation at room temperature, the color development was stopped with 50 μl sulphuric acid 0.38 M and the plates were read at a wavelength of 450 nm with a Packard plate reader. The values obtained were analyzed by four parameters curve fit in the computer program GraphPad Prism, after normalization by a maximum binding control (Bmax) detected in wells where no competitor was added, and a minimum binding control (NSB) detected in wells where no integrin was coated. […]

For a further assay, the target named is T2, αIIbβ3 integrin (Homo sapiens, UniProt P05106+P08514).
T2 construct: Human fibrinogen receptor (αIIbβ3) was purified from human platelets; from tissue; host or cells: human platelets
In words: αIIbβ3-fibrinogen binding assay (solid phase). The note with it: inhibition of biotinylated fibrinogen (10 nM) binding to coated integrin; read-out: αIIbβ3 (IC50 μmol). How it is done:
as §1, with “of αIIbβ3-fibrinogen” for “of αvβ3-vitronectin”, “up according to” for “up on”, “the method described for αvβ3. αIIbβ3” for “the basis of already published methods (WONG et al., Molecular Pharmacology 50: 529–537, 1996; Brooks et al., Cell 85: 683–693, 1996). The human αvβ3”, “mM Cacl2,” for “mM CaCl2,”, “of 3” for “of 1.5”, “fit with” for “fit in”

T1 sequence (P06756 31-889 limits assumed): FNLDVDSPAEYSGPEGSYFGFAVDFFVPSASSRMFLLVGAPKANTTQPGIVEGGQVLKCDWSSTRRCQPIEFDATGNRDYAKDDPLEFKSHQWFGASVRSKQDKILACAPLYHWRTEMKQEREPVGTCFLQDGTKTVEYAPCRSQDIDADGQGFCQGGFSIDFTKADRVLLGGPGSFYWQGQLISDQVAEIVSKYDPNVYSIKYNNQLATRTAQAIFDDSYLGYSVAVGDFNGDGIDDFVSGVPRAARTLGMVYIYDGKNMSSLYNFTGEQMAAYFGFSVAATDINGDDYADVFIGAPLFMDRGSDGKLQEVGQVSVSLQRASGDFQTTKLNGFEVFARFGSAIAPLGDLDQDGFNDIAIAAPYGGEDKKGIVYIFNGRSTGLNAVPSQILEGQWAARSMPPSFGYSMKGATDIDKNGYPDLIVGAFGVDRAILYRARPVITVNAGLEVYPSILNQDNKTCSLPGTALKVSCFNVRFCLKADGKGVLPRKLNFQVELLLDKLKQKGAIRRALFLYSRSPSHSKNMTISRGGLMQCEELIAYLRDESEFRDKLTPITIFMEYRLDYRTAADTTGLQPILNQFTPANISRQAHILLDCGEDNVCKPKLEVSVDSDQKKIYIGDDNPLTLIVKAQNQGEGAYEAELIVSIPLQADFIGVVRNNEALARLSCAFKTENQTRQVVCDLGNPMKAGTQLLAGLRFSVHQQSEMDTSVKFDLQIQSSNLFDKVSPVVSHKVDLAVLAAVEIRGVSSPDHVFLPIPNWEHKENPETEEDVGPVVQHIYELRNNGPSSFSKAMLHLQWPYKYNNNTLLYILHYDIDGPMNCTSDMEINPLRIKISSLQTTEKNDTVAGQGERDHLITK
T1 sequence (P06756 891-1048 partner limits assumed): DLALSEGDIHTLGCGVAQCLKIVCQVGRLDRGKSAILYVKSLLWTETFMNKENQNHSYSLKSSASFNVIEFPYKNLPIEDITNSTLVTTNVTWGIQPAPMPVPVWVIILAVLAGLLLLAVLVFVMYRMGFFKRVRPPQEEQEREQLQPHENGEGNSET
T1 sequence (P05106 27-788): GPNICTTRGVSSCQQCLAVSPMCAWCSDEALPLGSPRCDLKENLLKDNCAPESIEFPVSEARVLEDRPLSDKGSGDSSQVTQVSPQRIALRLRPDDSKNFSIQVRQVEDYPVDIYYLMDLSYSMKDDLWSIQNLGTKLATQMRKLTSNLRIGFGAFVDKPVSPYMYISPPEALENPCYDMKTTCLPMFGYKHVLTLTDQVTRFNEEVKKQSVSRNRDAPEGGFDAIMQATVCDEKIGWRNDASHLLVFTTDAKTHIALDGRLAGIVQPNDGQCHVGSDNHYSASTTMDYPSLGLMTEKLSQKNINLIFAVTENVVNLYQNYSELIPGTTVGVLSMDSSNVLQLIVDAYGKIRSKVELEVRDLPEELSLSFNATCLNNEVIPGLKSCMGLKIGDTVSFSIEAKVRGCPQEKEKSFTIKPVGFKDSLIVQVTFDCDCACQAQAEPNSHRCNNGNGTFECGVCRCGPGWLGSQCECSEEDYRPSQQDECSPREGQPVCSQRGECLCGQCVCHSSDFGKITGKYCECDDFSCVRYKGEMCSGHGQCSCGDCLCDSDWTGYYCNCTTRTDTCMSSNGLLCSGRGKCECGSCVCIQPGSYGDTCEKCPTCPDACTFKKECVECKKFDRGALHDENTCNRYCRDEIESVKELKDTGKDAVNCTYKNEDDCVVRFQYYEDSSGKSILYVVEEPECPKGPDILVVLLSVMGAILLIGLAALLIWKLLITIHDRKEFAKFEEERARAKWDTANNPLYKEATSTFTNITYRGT
T2 sequence (P08514 32-887 limits assumed): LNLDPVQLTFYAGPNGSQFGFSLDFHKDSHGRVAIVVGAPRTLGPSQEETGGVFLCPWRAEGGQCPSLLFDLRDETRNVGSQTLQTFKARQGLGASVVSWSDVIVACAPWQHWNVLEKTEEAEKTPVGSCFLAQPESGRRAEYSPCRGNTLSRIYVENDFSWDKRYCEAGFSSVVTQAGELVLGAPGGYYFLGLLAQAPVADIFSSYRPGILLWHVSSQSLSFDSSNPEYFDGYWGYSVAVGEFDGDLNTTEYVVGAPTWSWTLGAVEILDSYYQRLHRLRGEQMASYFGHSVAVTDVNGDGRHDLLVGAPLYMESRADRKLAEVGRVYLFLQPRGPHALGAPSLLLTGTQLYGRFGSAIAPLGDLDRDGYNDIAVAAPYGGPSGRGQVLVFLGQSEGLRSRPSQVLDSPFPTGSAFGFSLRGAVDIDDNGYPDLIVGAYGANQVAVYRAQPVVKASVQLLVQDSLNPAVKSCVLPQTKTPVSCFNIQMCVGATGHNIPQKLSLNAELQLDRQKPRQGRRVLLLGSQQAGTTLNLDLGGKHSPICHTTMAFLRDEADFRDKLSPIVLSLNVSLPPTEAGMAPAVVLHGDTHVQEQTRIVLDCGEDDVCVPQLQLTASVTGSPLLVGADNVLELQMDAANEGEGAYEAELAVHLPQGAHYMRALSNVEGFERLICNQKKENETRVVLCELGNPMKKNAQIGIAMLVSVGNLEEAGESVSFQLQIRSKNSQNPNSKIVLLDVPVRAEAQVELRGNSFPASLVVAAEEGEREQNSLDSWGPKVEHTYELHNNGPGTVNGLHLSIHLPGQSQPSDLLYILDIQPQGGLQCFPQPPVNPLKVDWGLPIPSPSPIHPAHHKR
T2 sequence (P08514 891-1039 partner limits assumed): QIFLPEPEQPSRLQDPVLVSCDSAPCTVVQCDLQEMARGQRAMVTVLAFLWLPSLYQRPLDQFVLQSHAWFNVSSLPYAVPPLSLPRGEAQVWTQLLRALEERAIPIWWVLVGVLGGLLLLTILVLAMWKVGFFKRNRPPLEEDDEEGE
T2 sequence (P05106 27-788): as the sequence (P05106 27-788) above

In general, IC50 refers to the concentration that inhibits the measured activity by half. Turning to `O=C(O)CC(Nc1ccc2c(c1)OCC(=O)N2CCCNc1ccccn1)c1ccccc1` (stereo not drawn) [3-{4-[3-(N-(2-pyridinyl)amino)propyl]-3-oxo-3,4-dihydro-2H-1,4-benzoxazin-7-yl)amino}-3-phenylpropanoic acid], the concentration for half-maximal inhibition (IC50) came out at 0.011 ± 0.004 µM on human αvβ3 integrin (inhibition of biotinylated vitronectin (5 nM) binding to coated integrin, read-out: αvβ3 (IC50 μmol)) and 18 µM on αIIbβ3 integrin. The “ratio between αIIbβ3 and αvβ3 inhibiting activity” value at human αvβ3 integrin (selectivity, αIIbβ3 IC50 / αvβ3 IC50) was “about 1,000”.
